Results reported in BindingDB's records for doi:10.7270/Q2GM865X (D3R/Abbott, 2015).
“And” between values parts separate entries of the source, which are not always exact repeats. Identical values can stand only once.

Biological target: Coagulation factor X (Homo sapiens, UniProt P00742)
Assay: D3R245

Chain of Coagulation factor X (P00742 41-179 limits assumed): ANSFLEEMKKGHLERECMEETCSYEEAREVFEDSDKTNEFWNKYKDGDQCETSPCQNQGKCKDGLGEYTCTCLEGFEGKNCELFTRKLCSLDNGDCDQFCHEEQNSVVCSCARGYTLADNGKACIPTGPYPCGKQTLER
Chain of Coagulation factor X (P00742 235-488 limits assumed): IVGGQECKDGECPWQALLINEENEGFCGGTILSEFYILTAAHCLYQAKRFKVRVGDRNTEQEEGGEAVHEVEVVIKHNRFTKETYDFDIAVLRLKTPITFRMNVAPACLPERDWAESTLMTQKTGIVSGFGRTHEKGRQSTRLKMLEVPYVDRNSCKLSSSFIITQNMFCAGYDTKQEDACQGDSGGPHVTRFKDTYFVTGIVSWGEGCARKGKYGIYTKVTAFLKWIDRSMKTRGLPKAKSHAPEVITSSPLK

IC50	Structure (SMILES)
6.5 nM	C[C@@H](C(=O)N1CCOCC1)N1CC[C@H](N(CC(=O)OC(C)(C)C)S(=O)(=O)c2ccc3cc(Cl)ccc3c2)C1=O [GTC000022A]
56.5 nM	CC(=O)NCCN([C@H]1CCN([C@@H](C)C(=O)N2CCOCC2)C1=O)S(=O)(=O)c1ccc2cc(Cl)ccc2c1 [GTC000041A]
26.3 nM	C[C@@H](C(=O)N1CCOCC1)N1CC[C@H](N(Cc2cccnc2)S(=O)(=O)c2ccc3cc(Cl)ccc3c2)C1=O [GTC000015A]
11 nM	C[C@@H](C(=O)N1CCOCC1)N1CC[C@H](N(Cc2ccncc2)S(=O)(=O)c2ccc3cc(Cl)ccc3c2)C1=O [GTC000029A]
17 nM	CCC(=O)CN([C@H]1CCN([C@@H](C)C(=O)N2CCOCC2)C1=O)S(=O)(=O)c1ccc(-c2ccc(Cl)s2)s1 [GTC000010A]
22.5 nM	C[C@@H](C(=O)N1CCOCC1)N1CC[C@H](N(CC#N)S(=O)(=O)c2ccc3cc(Cl)ccc3c2)C1=O [GTC000003A]
77 nM	C[C@@H](C(=O)N1CCOCC1)N1CC[C@H](N(c2cccnc2)S(=O)(=O)c2ccc3cc(Cl)ccc3c2)C1=O [GTC000037A]
8 nM and 12 nM	C[C@@H](C(=O)N1CCOCC1)N1CC[C@H](N(Cc2ccccn2)S(=O)(=O)c2ccc3cc(Cl)ccc3c2)C1=O [GTC000028A]
87.5 nM	C[C@@H](C(=O)N1CCOCC1)N1CC[C@H](N(CC#N)S(=O)(=O)/C=C/c2ccc(Cl)cc2)C1=O [GTC000011A]
405 nM	C[C@@H](C(=O)N1CCOCC1)N1CC[C@H](N(C)S(=O)(=O)/C=C/c2ccc(Cl)s2)C1=O [GTC000044A]
17 nM	C[C@@H](C(=O)N1CCOCC1)N1CC[C@H](N(CC(=O)C(C)(C)C)S(=O)(=O)c2ccc3cc(Cl)ccc3c2)C1=O [GTC000021A]
218 nM	C[C@@H](C(=O)N1CCOCC1)N1CC[C@H](N(CC(N)=O)S(=O)(=O)c2cc3cc(Cl)ccc3s2)C1=O [GTC000031A]
97.3 nM	C[C@@H](C(=O)N1C[C@@H]2C[C@H]1CO2)N1CC[C@H](N(CC(N)=O)S(=O)(=O)c2ccc3cc(Cl)ccc3c2)C1=O [GTC000039A]
8.3 nM	C[C@@H](C(=O)N1CCOCC1)N1CC[C@H](N(CCN2CCOCC2)S(=O)(=O)c2ccc3cc(Cl)ccc3c2)C1=O [GTC000040A]
38 nM	C[C@@H](C(=O)N1CCOCC1)N1CC[C@H](N(Cc2nccs2)S(=O)(=O)c2ccc3cc(Cl)ccc3c2)C1=O [GTC000020A]
24 nM	C[C@@H](C(=O)N1CCOCC1)N1CC[C@H](N(CC(=O)O)S(=O)(=O)c2ccc(-c3ccc(Cl)s3)s2)C1=O [GTC000016A]
54 nM	CCN([C@H]1CCN([C@@H](C)C(=O)N2CCOCC2)C1=O)S(=O)(=O)c1ccc2cc(Cl)ccc2c1 [GTC000023A]
12 nM	C[C@@H](C(=O)N1CCOCC1)N1CC[C@H](N(CCN2CCCC2)S(=O)(=O)c2ccc3cc(Cl)ccc3c2)C1=O [GTC000043A]
60 nM	CCC(=O)CN([C@H]1CCN([C@@H](C)C(=O)N2CCOCC2)C1=O)S(=O)(=O)/C=C/c1ccc(Cl)cc1 [GTC000012A]
10.5 nM	COC(=O)CN([C@H]1CCN([C@@H](C)C(=O)N2CCOCC2)C1=O)S(=O)(=O)c1ccc2cc(Cl)ccc2c1 [GTC000001A]

IC50	Structure (SMILES)
68 nM	C[C@@H](C(=O)N1CCOCC1)N1CC[C@H](N(Cc2ccco2)S(=O)(=O)c2ccc3cc(Cl)ccc3c2)C1=O [GTC000019A]
28 nM	C[C@@H](C(=O)N1CCOCC1)N1CC[C@H](N(CC#N)S(=O)(=O)c2ccc(-c3ccc(Cl)s3)s2)C1=O [GTC000008A]
14 nM	C[C@@H](C(=O)N1CCOCC1)N1CC[C@H](N(CC(N)=O)S(=O)(=O)c2ccc(-c3ccc(Cl)s3)s2)C1=O [GTC000032A]
26.5 nM	C[C@@H]1CN(C(=O)[C@H](C)N2CC[C@H](N(CC(N)=O)S(=O)(=O)c3ccc4cc(Cl)ccc4c3)C2=O)C[C@H](C)O1 [GTC000038A]
67 nM	C=CCN([C@H]1CCN([C@@H](C)C(=O)N2CCOCC2)C1=O)S(=O)(=O)c1ccc2cc(Cl)ccc2c1 [GTC000004A]
266 nM	C[C@@H](C(=O)N1CCOCC1)N1CC[C@H](N(c2ccccc2)S(=O)(=O)c2ccc3cc(Cl)ccc3c2)C1=O [GTC000033A]
40 nM	C[C@@H](C(=O)N1CCOCC1)N1CC[C@H](N(Cc2ccoc2)S(=O)(=O)c2ccc3cc(Cl)ccc3c2)C1=O [GTC000014A]
27 nM	CCC(=O)CN([C@H]1CCN([C@@H](C)C(=O)N2CCOCC2)C1=O)S(=O)(=O)c1cc2ccc(Cl)cc2s1 [GTC000025A]
278 nM	CCC(=O)CN([C@H]1CCN([C@@H](C)C(=O)N2CCOCC2)C1=O)S(=O)(=O)c1cc2cc(Cl)ccc2s1 [GTC000027A]
60 nM	COC(=O)CN([C@H]1CCN([C@@H](C)C(=O)N2CCOCC2)C1=O)S(=O)(=O)/C=C/c1ccc(Cl)cc1 [GTC000013A]
358 nM	CCOC(=O)CN([C@H]1CCN([C@@H](C)C(=O)N2CCOCC2)C1=O)S(=O)(=O)c1ccc2cc(Cl)ccc2c1 [GTC000018A]
50 nM	C[C@@H](C(=O)N1CCOCC1)N1CC[C@H](N(CC(N)=O)S(=O)(=O)c2cc3ccc(Cl)cc3s2)C1=O [GTC000026A]
17.5 nM	Cc1nc(CN([C@H]2CCN([C@@H](C)C(=O)N3CCOCC3)C2=O)S(=O)(=O)c2ccc3cc(Cl)ccc3c2)cs1 [GTC000024A]
24 nM	C[C@@H](C(=O)N1CCOCC1)N1CC[C@H](N(CCN(C)C)S(=O)(=O)c2ccc3cc(Cl)ccc3c2)C1=O [GTC000042A]
15.5 nM	COC(=O)CN([C@H]1CCN([C@@H](C)C(=O)N2CCOCC2)C1=O)S(=O)(=O)c1ccc(-c2ccc(Cl)s2)s1 [GTC000009A]
170 nM	C[C@@H](C(=O)N1CCOCC1)N1CC[C@H](N(c2ccc(F)cc2)S(=O)(=O)c2ccc3cc(Cl)ccc3c2)C1=O [GTC000034A]
54 nM	C[C@@H](C(=O)N1CCOCC1)N1CC[C@H](N(CC(N)=O)S(=O)(=O)/C=C/c2ccc(Cl)cc2)C1=O [GTC000030A]
152 nM	C[C@@H](C(=O)N1CCOCC1)N1CC[C@H](N(c2ccsc2)S(=O)(=O)c2ccc3cc(Cl)ccc3c2)C1=O [GTC000036A]
132 nM	C[C@@H](C(=O)N1CCOCC1)N1CC[C@H](N(CC(=O)O)S(=O)(=O)/C=C/c2ccc(Cl)cc2)C1=O [GTC000017A]
